Several values for one entry are separate records, joined by “and”; a condition that tells them apart may be missing. Identical values can stand only once.
Tested on: Lmna G609G/G609G mouse
Assay: Body weight of Lmna G609G/G609G mice (ratio, week 4 = 1)
Format: in vivo
Conditions: for body weight: IP injection
Description: Fig. 3 In vivo favorable effect of SLC-D011. A Gross morphology of Lmna^G609G/G609G mice (10 weeks old) was ameliorated after injection with SLC-D011. At the same age, the experimental group (D011) of mice were larger than vehicle-injected control (Con) subjects regardless of gender. B, C SLC-D011 increases body weight B and extends life span C of Lmna^G609G/G609G progeria model mouse (Con: n = 8; SLC-D011: n = 8). Compared with 14.8 weeks of average (ave) life span with maximum (max) life span of 15.5 weeks, 20 mg/kg of intraperitoneal (i.p) injection (twice a week) of SLC-D011 could extend the life span upto 19 weeks (max = 21 weeks). Lmna^G609G/G609G mice were injected with SLC-D011 from age of 5-week old, *p < 0.05. D Gross morphology of SLC-D011 injected Lmna^G609G/+ mouse. […] E SLC-D011 increases body weights of Lmna^G609G/+ mice (Con: n = 10; SLC-D011: n = 11), *p < 0.05. F Favorable effect of SLC-D011 on life span of Lmna^G609G/+ mice. Compared with vehicle-injected control group (ave = 46.7 weeks and max = 48 weeks), SLC-D011 treatment obviously extended the average life span to 63 weeks (max = 64 weeks). The injection was started from 32 weeks old, **p < 0.001. “Con” means vehicle (a solvent composed of DMSO and PBS)-injected mouse group. TEXT PRINTED IN THE PICTURE: (C) D011: Kaplan-Meier survival curve in Lmna^G609G/G609G: Ave=19; Kaplan-Meier survival curve in Lmna^G609G/G609G: Max=21 | (F) D011: Kaplan-Meier survival curve in Lmna^G609G/+: Ave=63; Kaplan-Meier survival curve in Lmna^G609G/+: Max=64 DOUBTS OF THE COPYIST ABOUT THIS PICTURE: Panels C and F: the Ave/Max labels are not printed with a group name. They are assigned to D011 (solid curve) or Con (dashed curve) only by their position beside the curves. / Panel C Ave=14.8, Max=15.5 and panel F Ave=46.7, Max=48 stand beside the dashed Con curve. They are left out because Con is the control group, not a substance. / No unit is printed with the Ave/Max values. Only the axis reads Age (weeks).
Fig. 4 Oral administration of SLC-D011 suppresses premature aging features. A Gross morphology of SLC-D011-treated (D011) mice at 8 weeks old. Body size of treated mouse was apparently larger than that of the untreated control (Con) mouse. B Oral administration of SLC-D011 increases body weights of Lmna^G609G/G609G mice. Compared with untreated control group, body weight of treated mouse was increased by ~35%, *p < 0.05. C Oral administration of SLC-D011 extends the life span of Lmna^G609G/G609G mouse. SLC-D011 in monoolein-based solution was treated by oral gavage (50 mg/kg, daily) from 5 weeks old. […] E Grip test of Lmna^G609G/+ mice at 41-week-old was performed after administration of SLC-D011 for 6 weeks. The test was repeated 10 times for each mouse (n > 4), **p < 0.001. Data are presented as mean ± SD. F Electrocardiographic analysis of Lmna^G609G/+ mice (untreated: n = 4; SLC-D011: n = 4) and Lmna^+/+ mice (n = 3) after treatment with SLC-D011 for 6 weeks (unpaired t test). Heart rate is shown as beats per minute (bpm). G Dental abnormalities in Lmna^G609G/+ mice (untreated: n = 4; SLC-D011: n = 5) and Lmna^+/+ mice (n = 4). […] Lower incisors of Lmna^G609G transgenic mice grow toward the palate because of malocclusion. Oral administration of SLC-D011 for 6 weeks alleviates dental abnormalities. H Anti-aging effects of single treatment of SLC-D011 or lonafarnib were measured in HGPS patients-derived cells (AG11513, AG03199, AG11498, and AG03198, Coriell Cell Repositories). Single treatment of SLC-D011, compared to lonafarnib, reduced the expression of progerin but induced the expression of H3K9me3 and cyclin B1 in HGPS cells more effectively. HGPS patients-derived cells were treated with SLC-D011 (500 nM) or lonafarnib (500 nM) for 3 days. I Scheme of interaction between lamin A and progerin. SLC-D011 interrupts the interaction between lamin A and progerin through direct binding to the C-terminal region of progerin. […]

CC1(C)Oc2cc3oc(=O)ccc3cc2C[C@@H]1OC/C=C/c1ccccc1 [SLC-D011]
body weight (after week 5): 1.167 and 1.25 and 1.182 and 1
body weight (after week 7): 1.333 and 1.417 and 1.273 and 1.077
body weight (after week 8): 1.5 and 1.25 and 1.273 and 1 and 1.462
body weight (after week 9): 1.417 and 1.25 and 1.273 and 1 and 1.385
body weight (after week 10): 1.333 and 1.167 and 1.182 and 1
body weight (after week 13): 1.167 and 0.8333 and 1.091 and 0.8462
body weight (after week 15): 1 and 0.6667 and 0.9231
body weight (after week 16): 1 and 0.8182 and 0.8462
body weight (after week 17): 0.8333 and 0.8182 and 0.7692
body weight (column after week 4): 1.083 and 1
body weight (column after week 6): 1.25 and 1.333 and 1.273 and 1.077
body weight (column after week 11): 1.333 and 1.083 and 1.182 and 1
body weight (column after week 12): 1.25 and 0.9167 and 1.182 and 0.9231
body weight (column after week 14): 1.083 and 0.75 and 1.091 and 0.9231
body weight (column after week 18): 0.8333 and 0.7692
body weight (column after week 19): 0.75
body weight (week 5): 1.167 and 1.091 and 1
body weight (week 6): 1.167 and 1.333 and 1.273 and 1
body weight (week 7): 1.333 and 1.417 and 1.273 and 1
body weight (week 8): 1.417 and 1.273 and 1.077 and 1.385
body weight (week 10): 1.417 and 1.167 and 1.273 and 1 and 1.385
body weight (week 11): 1.333 and 1.083 and 1.182 and 1.077
body weight (week 12): 1.25 and 1 and 1.182 and 0.9231
body weight (week 13): 1.25 and 0.8333 and 1.182 and 0.9231
body weight (week 15): 1.083 and 0.75 and 1.091 and 0.8462
body weight (week 16): 1 and 0.8462
body weight (week 17): 0.8333 and 0.8182 and 0.8462
body weight (week 18): 0.8333 and 0.7692
body weight (week 19): 0.8333
Increase of body weight compared with untreated control (oral administration): ~ 35%
